The values that follow come from US20260193238A1, “PHARMACEUTICAL COMPOUNDS AS PARP7 AND/OR PARP1 INHIBITORS” (Duke Street Bio Limited, priority 2022, published 2026).

In this assay the target is PARP1 (Homo sapiens, UniProt P09874). Briefly: PARP1 biochemical DELFIA assay (auto-PARylation).

The structures appear in SMILES notation.

PARP1, sequence (P09874 whole entry): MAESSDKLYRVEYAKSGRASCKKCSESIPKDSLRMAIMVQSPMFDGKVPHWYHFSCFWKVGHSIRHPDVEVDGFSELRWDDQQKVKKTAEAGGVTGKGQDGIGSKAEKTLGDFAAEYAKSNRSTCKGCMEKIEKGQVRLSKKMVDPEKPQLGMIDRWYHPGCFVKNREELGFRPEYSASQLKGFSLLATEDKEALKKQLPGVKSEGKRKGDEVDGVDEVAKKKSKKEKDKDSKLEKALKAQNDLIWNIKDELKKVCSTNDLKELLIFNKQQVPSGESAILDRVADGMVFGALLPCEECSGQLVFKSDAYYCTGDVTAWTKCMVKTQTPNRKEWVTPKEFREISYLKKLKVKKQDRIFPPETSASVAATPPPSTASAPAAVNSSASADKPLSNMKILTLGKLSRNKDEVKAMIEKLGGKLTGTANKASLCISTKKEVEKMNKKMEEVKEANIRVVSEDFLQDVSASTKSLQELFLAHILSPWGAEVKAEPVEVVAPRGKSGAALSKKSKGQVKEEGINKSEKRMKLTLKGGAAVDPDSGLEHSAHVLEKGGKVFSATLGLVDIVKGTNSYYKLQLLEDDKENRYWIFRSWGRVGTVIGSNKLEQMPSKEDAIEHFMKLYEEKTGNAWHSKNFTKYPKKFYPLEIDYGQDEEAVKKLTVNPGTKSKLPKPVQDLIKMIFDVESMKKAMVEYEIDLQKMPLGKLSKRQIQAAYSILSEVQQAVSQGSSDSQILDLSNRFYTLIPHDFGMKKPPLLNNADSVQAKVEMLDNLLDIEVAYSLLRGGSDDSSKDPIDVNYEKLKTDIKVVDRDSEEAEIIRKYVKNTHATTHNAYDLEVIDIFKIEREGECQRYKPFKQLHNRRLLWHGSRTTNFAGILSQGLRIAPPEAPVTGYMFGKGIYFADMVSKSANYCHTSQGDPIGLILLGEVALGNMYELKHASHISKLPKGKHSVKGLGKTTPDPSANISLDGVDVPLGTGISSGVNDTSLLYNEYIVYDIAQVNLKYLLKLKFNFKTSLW
Method: Prior to assay, wells were washed 3×5 min in coating wash buffer.
% data was fitted to a non-linear regression equation (log inhibitor vs response-variable slope 4-parameters) to obtain IC50 values.

As usually defined, the IC50 is the concentration needed to halve the response being measured. A high value points to weaker potency in that assay. Turning to `O=C(CN1CC(F)(F)C[C@H]1c1cc(C(F)(F)F)c(=O)[nH]n1)N1CCN(c2ncc(C(F)(F)F)cn2)CC1` [Compound 91b, (S)-6-(4,4-difluoro-1-(2-oxo-2-(4-(5-(trifluoromethyl)pyrimidin-2-yl)piperazin-1-yl)ethyl)pyrrolidin-2-yl)-4-(trifluoromethyl)pyridazin-3(2H)-one], the IC50 (Table 1A) was 1 to 10 µM.
With `O=C(CCN1CCCC(c2cc(C(F)(F)F)c(=O)[nH]n2)C1)N1CCN(c2ncc(C(F)(F)F)s2)CC1` (single isomer, unassigned) [Compound 27b], where the note is “Table 1”, the IC50 lay within 0.01 to 0.1 µM.
On the same count and under the same terms, under `O=C(CCN1CCCCC1c1cc(C(F)(F)F)c(=O)[nH]n1)N1CCN(c2ncc(C(F)(F)F)cn2)CC1` (racemic) [Compound 21rac] stands 0.01 to 0.1 µM.
In turn, `O=C(CN1CCCC1c1cc(C(F)(F)F)c(=O)[nH]n1)N1CCN(c2ncc(Cl)cn2)CC1` (single isomer, unassigned) [Compound 35a] showed an IC50 (Table 1A) of 0.01 to 0.1 µM.
`N#Cc1ccc2nc(N3CCN(C(=O)CN4CCCC4c4cc(C(F)(F)F)c(=O)[nH]n4)CC3)oc2c1` (single isomer, unassigned) [Compound 96b] displayed an IC50 (Table 1A) of at most 0.01 µM.
On to `O=C(CN1CCCC1c1cc(C(F)(F)F)c(=O)[nH]n1)N1CCN(c2ncc(C(F)(F)F)cn2)CC1` (single isomer, unassigned) [Compound 24b, 6-(1-(2-oxo-2-(4-(5-(trifluoromethyl)pyrimidin-2-yl)piperazin-1-yl)ethyl)pyrrolidin-2-yl)-4-(trifluoromethyl)pyridazin-3(2H)-one], for which the IC50 (Table 1) was 0.01 to 0.1 µM.
On to `N#Cc1cnc(N2CCN(C(=O)CN3CCCC3c3c[nH]c(=O)c(C(F)(F)F)c3)CC2)nc1` (single isomer, unassigned) [Compound 76b], for which the IC50 (Table 1A) lay within 0.1 to 1 µM.
As for `O=C(CN1CCCC1c1cc(C(F)(F)F)c(=O)[nH]n1)N1CCC(c2ncc(C(F)(F)F)cn2)CC1` (single isomer, unassigned) [Compound 70a], the IC50 (Table 1A) fell in the range of 1 to 10 µM.
With `CNC(=O)c1ccc(N2CCN(C(=O)CN3CCOCC3c3cc(C(F)(F)F)c(=O)[nH]n3)CC2)cn1` (single isomer, unassigned) [Compound 90b], the IC50 (Table 1A) lay within 1 to 10 µM.
As for `N#Cc1ccc(N2CCN(C(=O)CN3CCCC3c3c[nH]c(=O)c(C(F)(F)F)c3)CC2)nc1` (single isomer, unassigned) [Compound 77a], the IC50 (Table 1A) lay within 1 to 10 µM.
For the setting “Table 1A”, `O=C(CN1CCCC1c1cc(C(F)(F)F)c(=O)[nH]n1)N1CC2(CCN(c3ncc(C(F)(F)F)cn3)CC2)C1` (single isomer, unassigned) [Compound 110b] came in with an IC50 of 1 to 10 µM.
In turn, `O=C(CN1CCCC1c1cc(C(F)(F)F)c(=O)[nH]n1)N1CCN(c2ccc(C(F)(F)F)cn2)CC1` (single isomer, unassigned) [Compound 42a] registered an IC50 (Table 1A) of 1 to 10 µM.
Same read-out and setting: the same measure for `O=C(CN1CCCC1c1c[nH]c(=O)c(C(F)(F)F)c1)N1CCN(c2ncc(C(F)(F)F)cn2)CC1` (single isomer, unassigned) [Compound 60a, 5-(1-(2-oxo-2-(4-(5-(trifluoromethyl)pyrimidin-2-yl)piperazin-1-yl)ethyl)pyrrolidin-2-yl)-3-(trifluoromethyl)pyridin-2(1H)-one]: 0.01 to 0.1 µM.
With `O=C(CCN1CCCC(c2cc(C(F)(F)F)c(=O)[nH]n2)C1)N1CCN(c2ncc(C(F)(F)F)s2)CC1` (single isomer, unassigned) [Compound 27a], the concentration for half-maximal inhibition (IC50) (Table 1) lay within 0.01 to 0.1 µM.
Take `O=C(CN1CCCC1c1cc(C(F)(F)F)c(=O)[nH]n1)N1CCN(c2ccc(OC(F)(F)F)cn2)CC1` (single isomer, unassigned) [Compound 81b]: the IC50 (Table 1A) was in the range of 0.01 to 0.1 µM.
For `O=C(CN1CCCC1c1cc(C(F)(F)F)c(=O)[nH]n1)N1CCN(c2nc3cc(F)ccc3o2)CC1` (single isomer, unassigned) [Compound 93b], the IC50 (Table 1A) is 1 to 10 µM.
Take `O=C(CN1CCCC1c1cc(C(F)(F)F)c(=O)[nH]n1)N1CCN(c2ccc(C(F)(F)F)cn2)CC1` (single isomer, unassigned) [Compound 42b]: the IC50 (Table 1A) is 0.01 to 0.1 µM.
Where the note is “Table 1A”, `O=C(CN1CCN(c2ncc(C(F)(F)F)cn2)CC1)N1CCCC1c1c[nH]c(=O)c(C(F)(F)F)c1` (single isomer, unassigned) [Compound 63a] came in with an IC50 of 0.01 to 0.1 µM.
Where the note is “Table 1”, `O=C(CCN1CCC(c2cc(C(F)(F)F)c(=O)[nH]n2)C1)N1CCN(c2ncc(C(F)(F)F)cn2)CC1` (single isomer, unassigned) [Compound 7a] had an IC50 of 0.1 to 1 µM.
Take `O=C(CN1CCCC1c1cc(C(F)(F)F)c(=O)[nH]n1)N1CCN(c2ncc(Cl)cc2Cl)CC1` (single isomer, unassigned) [Compound 125b]: the IC50 (Table 1A) was 1 to 10 µM.
In the case of `CC1(C)CC(c2cc(C(F)(F)F)c(=O)[nH]n2)CN(CCC(=O)N2CCN(c3ncc(C(F)(F)F)cn3)CC2)C1` (single isomer, unassigned) [Compound 87a], the IC50 (Table 1A) fell in the range of 0.1 to 1 µM.
With `CCc1cc(C2CCCN2CC(=O)N2CCN(c3ncc(C(F)(F)F)cn3)CC2)n[nH]c1=O` (single isomer, unassigned) [Compound 40b], the half-maximal inhibitory concentration (IC50) (Table 1A) fell in the range of 1 to 10 µM.
For the setting “Table 1A”, `CNC(=O)c1ccc(N2CCN(C(=O)CN3CCCC3c3cc(C(F)(F)F)c(=O)[nH]n3)CC2)nc1` (single isomer, unassigned) [Compound 55a] displayed an IC50 of 1 to 10 µM.
`O=C(CCN1CCCC(c2cc(C(F)(F)F)c(=O)[nH]n2)C1)N1CCN(c2ccc(F)cn2)CC1` (single isomer, unassigned) [Compound 8a] showed an IC50 (Table 1) of 0.1 to 1 µM.
Consider `CC1(C)CC(c2cc(C(F)(F)F)c(=O)[nH]n2)N(CC(=O)N2CCN(c3ncc(C(F)(F)F)cn3)CC2)C1` (single isomer, unassigned) [Compound 94b], for which the IC50 (Table 1A) lay in the range of 1 to 10 µM.
As to `O=C(CN1CCC(c2n[nH]c(=O)c3ccccc23)CC1)N1CCN(c2ncc(C(F)(F)F)cn2)CC1` [Compound 51], the IC50 (Table 1A) lay in the range of 0.01 to 0.1 µM.
Consider `O=C(CCN1CCCC(c2cc(C(F)(F)F)c(=O)[nH]n2)C1)N1CCN(c2ncc(OC(F)(F)F)cn2)CC1` (single isomer, unassigned) [Compound 13a], for which the IC50 (Table 1) lay in the range of 0.1 to 1 µM.
For the setting “Table 1A”, `O=C(CN1CCCC1c1cc(C(F)(F)F)c(=O)[nH]n1)N1CCN(c2ccc(Cl)cn2)CC1` (single isomer, unassigned) [Compound 41a] showed an IC50 of 0.01 to 0.1 µM.
Take `CNC(=O)c1ccc(N2CCN(C(=O)CN3CCCC3c3cc(C(F)(F)F)c(=O)[nH]n3)CC2)nc1` (single isomer, unassigned) [Compound 55b]: the IC50 (Table 1A) was in the range of 0.1 to 1 µM.
In the case of `Cn1c(N2CCN(C(=O)CN3CCCC3c3cc(C(F)(F)F)c(=O)[nH]n3)CC2)nc2ccc(F)cc21` (single isomer, unassigned) [Compound 119b], the IC50 (Table 1A) is above 10 µM.
Consider `O=C(CN1CCCC1c1cc(C(F)(F)F)c(=O)[nH]n1)N1CCN(c2nc3ccc(F)cn3n2)CC1` (single isomer, unassigned) [Compound 128b], for which the IC50 (Table 1A) was in the range of 1 to 10 µM.
As to `O=C(CN1CCC(c2cc(C(F)(F)F)c(=O)[nH]n2)C1)N1CCN(c2ncc(C(F)(F)F)cn2)CC1` (racemic) [Compound 19rac], the IC50 (Table 1) lay within 0.1 to 1 µM.
As for `O=C(CN1CCCC1c1cc(C(F)(F)F)c(=O)[nH]n1)N1CCN(c2ncc(F)cc2F)CC1` (single isomer, unassigned) [Compound 83a], the IC50 (Table 1A) lay within 0.1 to 1 µM.
On to `O=C(CCN1CCCC(c2cc(C(F)(F)F)c(=O)[nH]n2)C1)N1CCN(c2ncc(C(F)(F)F)cn2)CC1` (single isomer, unassigned) [Compound 1a, 6-(1-(3-oxo-3-(4-(5-(trifluoromethyl)pyrimidin-2-yl)piperazin-1-yl)propyl)piperidin-3-yl)-4-(trifluoromethyl)pyridazin-3(2H)-one], for which, where the note is “Table 1”, the IC50 lay in the range of 0.1 to 1 µM.
Molecule `O=C(CN1CCCC1c1cc(C(F)(F)F)c(=O)[nH]n1)N1CCN(c2ncc(C3CC3)cn2)CC1` (single isomer, unassigned) [Compound 69b] came in with an IC50 (Table 1A) of 1 to 10 µM.
Still for that read-out and setting: the same measure for `N#Cc1ccc2nc(N3CCN(C(=O)CN4CCCC4c4cc(C#N)c(=O)[nH]n4)CC3)oc2c1` (single isomer, unassigned) [Compound 145b]: above 10 µM.
On the same count and under the same terms, under `N#Cc1cnc(N2CCN(C(=O)CN3CCCC3c3cc(C(F)(F)F)c(=O)[nH]n3)CC2)nc1` (single isomer, unassigned) [Compound 36a] stands 0.01 to 0.1 µM; under `O=C(CN1CCCCC1c1cc(C(F)(F)F)c(=O)[nH]n1)N1CCN(c2ncc(C(F)(F)F)cn2)CC1` (single isomer, unassigned) [Compound 66a], 0.1 to 1 µM; under `O=C(CCN1CC2(c3cc(C(F)(F)F)c(=O)[nH]n3)CC1C2)N1CCN(c2ncc(C(F)(F)F)cn2)CC1` [Compound 103], 0.1 to 1 µM.
Take `O=C(CN1CCCC1c1cc(C(F)(F)F)c(=O)[nH]n1)NC1CCN(c2ncc(C(F)(F)F)cn2)CC1` (single isomer, unassigned) [Compound 33b]: under “Table 1A”, the IC50 is 0.1 to 1 µM.
`O=C(CN1CCCC1c1c[nH]c(=O)c(C(F)(F)F)n1)N1CCN(c2ncc(C(F)(F)F)cn2)CC1` (single isomer, unassigned) [Compound 84b, 5-(1-(2-oxo-2-(4-(5-(trifluoromethyl)pyrimidin-2-yl)piperazin-1-yl)ethyl)pyrrolidin-2-yl)-3-(trifluoromethyl)pyrazin-2(1H)-one] had an IC50 (Table 1A) of 1 to 10 µM.
Under “Table 1A”, `COC1CC(c2cc(C(F)(F)F)c(=O)[nH]n2)N(CC(=O)N2CCN(c3ncc(C(F)(F)F)cn3)CC2)C1` (single isomer, unassigned) [Compound 138trans2, 6-(4-methoxy-1-(2-oxo-2-(4-(5-(trifluoromethyl)pyrimidin-2-yl)piperazin-1-yl)ethyl)pyrrolidin-2-yl)-4-(trifluoromethyl)pyridazin-3(2H)-one] came in with an IC50 above 10 µM.
As for `N#Cc1cc(C2CCCN2CC(=O)N2CCN(c3ncc(C(F)(F)F)cn3)CC2)n[nH]c1=O` (single isomer, unassigned) [Compound 98b, 3-oxo-6-(1-(2-oxo-2-(4-(5-(trifluoromethyl)pyrimidin-2-yl)piperazin-1-yl)ethyl)pyrrolidin-2-yl)-2,3-dihydropyridazine-4-carbonitrile], where the note is “Table 1A”, the IC50 is 1 to 10 µM.
On to `O=C(CN1CCCC1c1cc(C(F)(F)F)c(=O)[nH]n1)N1CCN(c2ccc(C(F)F)cn2)CC1` (single isomer, unassigned) [Compound 126b], for which the 50% inhibitory concentration (IC50) (Table 1A) fell in the range of 1 to 10 µM.
